Data on four compounds can be found in PubChem BioAssay AID1259407 (Chemical Carcinogenesis Research Information System (CCRIS), 2018).

Structures are written as SMILES. Active and inactive are the calls of the source. No rule for the calls is given here.

The subject of the data set is CCRIS mutagenicity, Ames/micronucleus/aberration tests. Put plainly: CCRIS mutagenicity studies.
[1] abbreviates: Test System: AMES SALMONELLA TYPHIMURIUM, Strain/Indicator: TA98, Metabolic Activation: NONE, Method: STANDARD PLATE.
Setting [2] is: Test System: AMES SALMONELLA TYPHIMURIUM, Strain/Indicator: TA100, Metabolic Activation: NONE, Method: STANDARD PLATE.
The mark [3] stands for this setting: Test System: AMES SALMONELLA TYPHIMURIUM, Strain/Indicator: TA1537, Metabolic Activation: NONE, Method: STANDARD PLATE.

Take `CC(=O)Nc1ccc(Oc2ccc(N)cc2)cc1`: the mutagenic call under setting [1] was “inactive; negative”; the mutagenic call (Test System: AMES SALMONELLA TYPHIMURIUM, Strain/Indicator: TA98, Metabolic Activation: RAT, LIVER, S-9, PCB, Method: STANDARD PLATE) was “active; positive”; the mutagenic call under setting [2] is “inactive; negative”; the mutagenic call (Test System: AMES SALMONELLA TYPHIMURIUM, Strain/Indicator: TA100, Metabolic Activation: RAT, LIVER, S-9, PCB, Method: STANDARD PLATE) was “active; positive”.
For `CC(=O)OCc1ccccc1N=Nc1ccc(N(C)C)cc1`, the mutagenic call is “active; positive” (Test System: AMES SALMONELLA TYPHIMURIUM, Strain/Indicator: TA98, Metabolic Activation: RAT, LIVER, S-9, POLYCHLORINATED BIPHENYLS, Method: PREINCUBATION) and “active; positive” (Test System: AMES SALMONELLA TYPHIMURIUM, Strain/Indicator: TA100, Metabolic Activation: RAT, LIVER, S-9, POLYCHLORINATED BIPHENYLS, Method: PREINCUBATION).
With `[O-]/[N+](=N\O)c1ccccc1`, the mutagenic call was “inactive; negative” (Test System: AMES SALMONELLA TYPHIMURIUM, Strain/Indicator: TA98, Metabolic Activation: HAMSTER, LIVER, S-9, AROCLOR 1254, Method: STANDARD PLATE); “inactive; negative” (Test System: AMES SALMONELLA TYPHIMURIUM, Strain/Indicator: TA98, Metabolic Activation: MOUSE, LIVER, S-9, AROCLOR 1254, Method: STANDARD PLATE); “inactive; negative” (Test System: AMES SALMONELLA TYPHIMURIUM, Strain/Indicator: TA98, Metabolic Activation: MOUSE, LIVER, S-9, Method: STANDARD PLATE); “inactive; negative” under setting [1]; “inactive; negative” (Test System: AMES SALMONELLA TYPHIMURIUM, Strain/Indicator: TA98, Metabolic Activation: RAT, LIVER, S-9, AROCLOR 1254, Method: STANDARD PLATE); “inactive; negative” (Test System: AMES SALMONELLA TYPHIMURIUM, Strain/Indicator: TA98, Metabolic Activation: RAT, LIVER, S-9, Method: STANDARD PLATE). The mutagenic call (Test System: AMES SALMONELLA TYPHIMURIUM, Strain/Indicator: TA100, Metabolic Activation: HAMSTER, LIVER, S-9, AROCLOR 1254, Method: STANDARD PLATE) is “inactive; negative”; the mutagenic call (Test System: AMES SALMONELLA TYPHIMURIUM, Strain/Indicator: TA100, Metabolic Activation: HAMSTER, LIVER, S-9, Method: STANDARD PLATE) was “inactive; negative”; the mutagenic call (Test System: AMES SALMONELLA TYPHIMURIUM, Strain/Indicator: TA100, Metabolic Activation: MOUSE, LIVER, S-9, AROCLOR 1254, Method: STANDARD PLATE) is “inactive; negative”; the mutagenic call (Test System: AMES SALMONELLA TYPHIMURIUM, Strain/Indicator: TA100, Metabolic Activation: MOUSE, LIVER, S-9, Method: STANDARD PLATE) is “inactive; negative”; the mutagenic call under setting [2] is “inactive; negative”; the mutagenic call (Test System: AMES SALMONELLA TYPHIMURIUM, Strain/Indicator: TA100, Metabolic Activation: RAT, LIVER, S-9, AROCLOR 1254, Method: STANDARD PLATE) is “inactive; negative”. The mutagenic call is “inactive; negative” (Test System: AMES SALMONELLA TYPHIMURIUM, Strain/Indicator: TA100, Metabolic Activation: RAT, LIVER, S-9, Method: STANDARD PLATE); “inactive; negative” (Test System: AMES SALMONELLA TYPHIMURIUM, Strain/Indicator: TA1535, Metabolic Activation: HAMSTER, LIVER, S-9, AROCLOR 1254, Method: STANDARD PLATE); “inactive; negative” (Test System: AMES SALMONELLA TYPHIMURIUM, Strain/Indicator: TA1535, Metabolic Activation: HAMSTER, LIVER, S-9, Method: STANDARD PLATE); “inactive; negative” (Test System: AMES SALMONELLA TYPHIMURIUM, Strain/Indicator: TA1535, Metabolic Activation: MOUSE, LIVER, S-9, AROCLOR 1254, Method: STANDARD PLATE); “inactive; negative” (Test System: AMES SALMONELLA TYPHIMURIUM, Strain/Indicator: TA1535, Metabolic Activation: MOUSE, LIVER, S-9, Method: STANDARD PLATE); “inactive; negative” (Test System: AMES SALMONELLA TYPHIMURIUM, Strain/Indicator: TA1535, Metabolic Activation: NONE, Method: STANDARD PLATE). Moreover, the mutagenic call (Test System: AMES SALMONELLA TYPHIMURIUM, Strain/Indicator: TA1535, Metabolic Activation: RAT, LIVER, S-9, AROCLOR 1254, Method: STANDARD PLATE) is “inactive; negative”; the mutagenic call (Test System: AMES SALMONELLA TYPHIMURIUM, Strain/Indicator: TA1535, Metabolic Activation: RAT, LIVER, S-9, Method: STANDARD PLATE) was “inactive; negative”; the mutagenic call (Test System: AMES SALMONELLA TYPHIMURIUM, Strain/Indicator: TA1537, Metabolic Activation: HAMSTER, LIVER, S-9, AROCLOR 1254, Method: STANDARD PLATE) is “inactive; negative”; the mutagenic call (Test System: AMES SALMONELLA TYPHIMURIUM, Strain/Indicator: TA1537, Metabolic Activation: HAMSTER, LIVER, S-9, Method: STANDARD PLATE) is “inactive; negative”; the mutagenic call (Test System: AMES SALMONELLA TYPHIMURIUM, Strain/Indicator: TA1537, Metabolic Activation: MOUSE, LIVER, S-9, AROCLOR 1254, Method: STANDARD PLATE) was “inactive; negative”; the mutagenic call (Test System: AMES SALMONELLA TYPHIMURIUM, Strain/Indicator: TA1537, Metabolic Activation: MOUSE, LIVER, S-9, Method: STANDARD PLATE) is “inactive; negative”. For the same compound, the mutagenic call is “inactive; negative” under setting [3]; “inactive; negative” (Test System: AMES SALMONELLA TYPHIMURIUM, Strain/Indicator: TA1537, Metabolic Activation: RAT, LIVER, S-9, AROCLOR 1254, Method: STANDARD PLATE); “inactive; negative” (Test System: AMES SALMONELLA TYPHIMURIUM, Strain/Indicator: TA1537, Metabolic Activation: RAT, LIVER, S-9, Method: STANDARD PLATE); “inactive; negative” (Test System: AMES SALMONELLA TYPHIMURIUM, Strain/Indicator: TA1538, Metabolic Activation: HAMSTER, LIVER, S-9, AROCLOR 1254, Method: STANDARD PLATE); “inactive; negative” (Test System: AMES SALMONELLA TYPHIMURIUM, Strain/Indicator: TA1538, Metabolic Activation: HAMSTER, LIVER, S-9, Method: STANDARD PLATE); “inactive; negative” (Test System: AMES SALMONELLA TYPHIMURIUM, Strain/Indicator: TA1538, Metabolic Activation: RAT, LIVER, S-9, AROCLOR 1254, Method: STANDARD PLATE). Further, the mutagenic call (Test System: E. COLI, Strain/Indicator: WP2 UVRA, Metabolic Activation: HAMSTER, LIVER, S-9, Method: STANDARD PLATE) was “inactive; negative”; the mutagenic call (Test System: E. COLI, Strain/Indicator: WP2 UVRA, Metabolic Activation: MOUSE, LIVER, S-9, AROCLOR 1254, Method: STANDARD PLATE) is “inactive; negative”; the mutagenic call (Test System: E. COLI, Strain/Indicator: WP2 UVRA, Metabolic Activation: MOUSE, LIVER, S-9, Method: STANDARD PLATE) is “inactive; negative”; the mutagenic call (Test System: E. COLI, Strain/Indicator: WP2 UVRA, Metabolic Activation: NONE, Method: STANDARD PLATE) is “inactive; negative”; the mutagenic call (Test System: E. COLI, Strain/Indicator: WP2 UVRA, Metabolic Activation: RAT, LIVER, S-9, Method: STANDARD PLATE) is “inactive; negative”.
Take `CC(=O)Nc1ccc2c(c1)[nH]c1ccccc12`: the mutagenic call reads like this: under setting [1], “active; positive”; (Test System: AMES SALMONELLA TYPHIMURIUM, Strain/Indicator: TA98, Metabolic Activation: RAT, LIVER, S-9, PHENOBARBITAL, Method: STANDARD PLATE) “active; positive”; under setting [2], “inactive; negative”; (Test System: AMES SALMONELLA TYPHIMURIUM, Strain/Indicator: TA100, Metabolic Activation: RAT, LIVER, S-9, PHENOBARBITAL, Method: STANDARD PLATE) “inactive; negative”; under setting [3], “inactive; negative”; (Test System: AMES SALMONELLA TYPHIMURIUM, Strain/Indicator: TA1538, Metabolic Activation: NONE, Method: STANDARD PLATE) “active; positive”. For the same compound, the mutagenic call is, setting by setting: (Test System: AMES SALMONELLA TYPHIMURIUM, Strain/Indicator: TA1538, Metabolic Activation: RAT, LIVER, S-9, PHENOBARBITAL, Method: STANDARD PLATE) “active; positive”; (Test System: AMES SALMONELLA TYPHIMURIUM, Strain/Indicator: TA1977, Metabolic Activation: NONE, Method: STANDARD PLATE) “inactive; negative”; (Test System: AMES SALMONELLA TYPHIMURIUM, Strain/Indicator: TA1977, Metabolic Activation: RAT, LIVER, S-9, PHENOBARBITAL, Method: STANDARD PLATE) “inactive; negative”.
